In patent US12697313B2, “Methods of treating anemia using formoterol or a pharmaceutically acceptable salt thereof” (Dana-Farber Cancer Institute, Inc., priority 2022, dated 2026):
Entries after “also recorded” stand apart in the source; their conditions may differ.

Legend:
[1] = test system: PHZ-induced lethal hemolytic anemia mice; experiment: PHZ lethal dose (135 mg/kg), FF oral gavage; assay type: in vivo; conditions: 0.1/0.5 mg/kg o.g.; PHZ 135 mg/kg; FIG. 54
Excerpt: Log-rank (Mantel-Cox) test. n=5 mice per group. All comparisons were done w.r.t. vehicle (DMSO) treated controls.

[2] = test system: APC KD HSPCs; experiment: Erythropoiesis in APC knockdown HSPCs; assay type: cell-based, human; conditions: FIG. 46
Excerpt: (§1) Primary human HSPCs were genome-edited, as previously described (Ghosh, S., Raundhal, M., Myers, S. A., Carr, S. A., Chen, X., Petsko, G. A., and Glimcher, L. H. (2022). Identification of RIOK2 as a master regulator of human blood cell development. Nat Immunol 23, 109-121).

[3] = test system: MDS patient-derived BM progenitors; experiment: Semi-solid methylcellulose culture of MDS patient-derived BM progenitors; assay type: cell-based, human
Excerpt: These findings prompted further testing to determine whether administration of FF in MDS patient-derived bone marrow (BM) samples improves erythroid differentiation in an ex vivo setting. To explore this, cells isolated from BM aspirates of de-identified MDS patients were procured. Next, the MDS patient-derived BM cells were placed in liquid erythroid differentiation culture, as previously described (Khajuria et al. (2018) Cell 173: 90-103), with or without FF treatment. […] To further validate this observation, the impact of FF from another vendor (Sigma) was tested on MDS patient-derived cells. […] Next, CD34+ progenitors were FACS-sorted from the MDS patient-derived BM aspirates and seeded in semi-solid methylcellulose culture media with vehicle (DMSO) or FF treatment. […] Therefore, the FDA-approved drug formoterol fumarate could be repurposed to reverse anemia in a range of hematological disorders.
After genome editing, primary human HSPCs were washed twice with 1× PBS and mixed with semi-solid methylcellulose medium (H4034 StemCell Technologies) by brief vortexing. Cells were plated at a density of 2000 per well in a 6-well plate followed by incubation in a humidified chamber at 37° C. for 14 days. Imaging of the colonies was performed using EVOS M5000 Imaging system® (ThermoFisher Scientific). […]

[4] = test system: RIOK2 KD HSPCs; experiment: Erythroid differentiation in RIOK2 knockdown HSPCs; assay type: cell-based, human; conditions: RIOK2 KD HSPCs vs DMSO; FIG. 6B, FIG. 45
Excerpt: Since RIOK2-deficient primary human HSPCs effectively model impaired erythropoiesis leading to anemia (Ghosh et la. (2022) Nat Immunol 23: 109-121), it was next investigated whether treatment with formoterol fumarate (FF) alleviates anemia in this in vitro model. To address this, RIOK2-proficient and deficient primary human HSPCs via CRISPR-Cas9 based genome-editing were generated (FIG. 6A), as previously described (Ghosh et al. (2022) Nat Immunol 23: 109-121). […] Since RPS14 deletion is reported to be MDS-genic (Ebert et al. (2008) Nature 451: 335-339; Schneider et al. (2016) Nat Med 22: 288-297), RPS14 was similarly knocked down in primary human HSPCs (FIG. 6C).
as §1

[5] = test system: primary human HSPCs; experiment: Mitochondrial functions in primary human HSPCs (mtDNA genes, TMRE, MitoTracker); assay type: cell-based
Method: Given the involvement of β2-AR in erythropoiesis, it was hypothesized that administration of long-acting selective β2-AR agonist FF might promote erythroid differentiation. To address this, primary human HSPCs were treated with varying doses of FF (Selleckchem). […] To ascertain if FF administration plays a role further upstream in the erythroid differentiation pathway, methylcellulose colony-formation assays were performed.
TMRE (T669, Invitrogen) and Mitotracker® (M22426, Life Technologies) and MitoSox® (M36008, Life Technologies) staining were performed as per the manufacturer's instructions.

[6] = test system: wild-type mice; experiment: FF oral gavage in wild-type mice at steady-state; assay type: in vivo
Excerpt: N=5 mice per group. All comparisons were done w.r.t. vehicle treated (DMSO) controls.

[7] = test system: mice; conditions: cited from earlier work
[8] = test system: wild-type C57BL/6J mice; experiment: Dose-specific effects of FF i.p. daily for 30 days in naive wild-type mice (Example 3); assay type: in vivo; conditions: for monocyte counts: FIG. 85B; for hemoglobin (Hb) levels: FIG. 84A; for RBC parameters (Hb, HCT %, RBC numbers): FIG. 84
Method: As described in Example 1 above, formoterol fumarate (FF) treatment of wild-type mice was well-tolerated (FIGS. 14A-14E). The effects of varying doses of FF from 0.1 up to 1.0 mg/kg were evaluated in naive mice without any external stress of phenylhydrazine (PHZ). Specifically, varying doses of FF 0.1-0.3-0.5-1.0 mg/kg or vehicle (0.3% DMSO in saline) were administered via intraperitoneal (i.p.) injection in 10-12 week old wild-type C57BL/6J mice daily for a period of 30 days.

[9] = test system: primary human HSPCs; experiment: Erythroid differentiation liquid culture of primary human HSPCs, flow cytometry; assay type: cell-based
Method: To address this, primary human HSPCs were treated with varying doses of FF (Selleckchem). […] To ascertain if FF administration plays a role further upstream in the erythroid differentiation pathway, methylcellulose colony-formation assays were performed.
CD34+ primary human hematopoietic stem and progenitor cells (HSPCs) were obtained from Fred-Hutchinson Cancer Research center, Seattle, USA and cultured, as previously described. Formoterol fumarate was purchased from Selleckchem (#S2020) and Sigma (#F9552), dissolved (in DMSO) and stored as per manufacturer's instructions, and used at the final working concentrations as indicated.

In the case of `COc1ccc(C[C@@H](C)NC[C@H](O)c2ccc(O)c(NC=O)c2)cc1.O=C(O)/C=C/C(=O)O` [FF, (E)-but-2-enedioic acid;N-[2-hydroxy-5-[(1R)-1-hydroxy-2-[[(2R)-1-(4-methoxyphenyl)propan-2-yl]amino]ethyl]phenyl]formamide], the “survival (Kaplan-Meier)” value [1] is reported as “confers striking survival benefits”, the erythropoiesis [2] is reported as “moderately rescues erythropoiesis” and the “viability, myelopoiesis (CFU-GM), megakaryopoiesis (CFU-Mk)” value ([3]; FIG. 11D) is reported as “produced insignificant effects on the viability, myeloid and megakaryocytic differentiation; also recorded: does not affect viability, myelopoiesis (CFU-GM) or megakaryopoiesis (CFU-Mk)”. For the same molecule, the “erythroid progenitors BFU-E and CFU-E” value ([3]; n=23 MDS patients, vs DMSO, FIG. 11A-11C) was “significantly boosted both BFU-E and CFU-E formation; also recorded: enhances differentiation of erythroid progenitors in MDS patient-derived bone marrow cells”, the “erythroid differentiation (CD235a)” value [4] was “stimulated erythropoiesis in RIOK2-knockdown (KD) HSPCs; also recorded: to levels comparable with basal erythropoiesis in control cells; also recorded: increases erythroid differentiation (CD235a) in RIOK2 KD HSPCs; also recorded: markedly rescues erythropoiesis” and the “mitochondrial membrane potential (TMRE staining)” value ([5]; FIG. 5B) was “elevated mitochondrial mass and membrane potential; also recorded: enhances mitochondrial membrane potential”. For the same molecule, the “mitochondrial mass (MitoTracker staining)” value ([5]; FIG. 5C) was “elevated mitochondrial mass and membrane potential; also recorded: increases mitochondrial mass”, the “expression of mitochondrial DNA encoded genes MT-ND1, MT-CytB, MT-CO1, MT-ATP6” value ([5]; vs DMSO, FIG. 5A) was “enhanced expression of mtDNA encoded genes required for OXPHOS; also recorded: enhances expression of mitochondrial DNA encoded genes” and the “RBC parameters (HCT %, RBC numbers, Hb) in peripheral blood” value ([6]; 14 days of daily o.g., FIG. 48) was “increases RBC parameters”. The “WBCs, monocytes and platelets in peripheral blood” value ([6]; 14 days of daily o.g., FIG. 49) was “does not affect WBC parameters”, the “mitochondrial membrane potential (TMRE staining) in BMPs” value ([6]; 14 days of daily o.g., FIG. 50) was “increases viability and mitochondrial membrane potential” and the “viability of bone marrow progenitors (BMPs)” value ([6]; 14 days of daily o.g., FIG. 50) was “increases viability and mitochondrial membrane potential”. For the same molecule, the “MEP and MkP” value ([6]; 14 days of daily o.g., FIG. 51) was “increases megakaryocyte erythroid progenitors (MEP) and megakaryocytic progenitors (MkP)”, the “granulocyte monocyte progenitors (GMP)” value ([6]; 14 days of daily o.g., FIG. 51) was “does not affect granulocyte monocyte progenitors (GMP)” and the “% change in body weights” value ([6]; o.g., steady state, FIG. 53) was “mildly increases body weights”. For the same molecule, the “muscle structure and function after injury” value ([7]; literature) was “improve muscle structure and function after injury”, the muscle mass ([7]; mice (Gehrig et al. 2010; Ryall et al. 2008)) was “increase muscle mass” and the monocyte counts ([8]; 0.1 mg/kg and 1.0 mg/kg) was “but not at the lowest dose (0.1 mg/kg) or highest dose (1.0 mg/kg)”. The “hemoglobin (Hb) levels” value ([8]; 0.1 mg/kg to 0.5 mg/kg) was “increased with dose”, the “hematocrit (HCT) % and RBC counts” value ([8]; 0.3 mg/kg and 0.5 mg/kg, FIG. 84B-84C) was “elevated” and the body weights ([8]; 1.0 mg/kg) was “pronounced increase in body weights”. For the same molecule, the “RBC parameters (Hb, HCT %, RBC numbers)” value ([8]; 1.0 mg/kg) was “this effect is not observed”, the “hemoglobin (Hb) levels” value ([8]; 1.0 mg/kg) was “no effect was observed” and the “white blood cell (WBC) count” value ([8]; 1.0 mg/kg, FIG. 85A) was “modestly impacts WBC; also recorded: only marginally affected”. For the same molecule, the body weights ([8]; 0.1-0.5 mg/kg) was “modestly increasing body weights”, the “% change in body weights” value ([8]; 0.1/0.3/0.5/1.0 mg/kg daily i.p., FIG. 83) was “increases body weights in a dose-dependent manner; also recorded: showed a dose-dependent increase in body-weight” and the “RBC parameters (Hb, HCT %, RBC numbers)” value ([8]; 0.3 and 0.5 mg/kg) was “enhance and sustain RBC parameters”. For the same molecule, the monocyte counts ([8]; 0.3 and 0.5 mg/kg) was “modestly impacts monocyte counts; also recorded: marginally affected”, the platelets ([8]; any dose, FIG. 85C) was “No significant effect was observed” and the “white blood count (WBC) numbers” value ([8]; lowest doses, FIG. 85A) was “does not influence”. The “erythroid differentiation (CD235a)” value ([9]; 1/5 μM, n=5 healthy donors, FIG. 2) was “induces erythroid differentiation (CD235a) dose-dependently”, the “megakaryocytic differentiation (CD41/61)” value ([9]; 1/5 μM, n=5 healthy donors, FIG. 12) was “does not influence megakaryocytic differentiation (CD41/61)” and the erythroid differentiation ([9]; FF from Selleckchem and Sigma, n=4 healthy donors, FIG. 3A-3B) was “similarly enhanced erythroid differentiation; also recorded: enhances erythroid differentiation”. The erythroid differentiation ([9]; control (RIOK2-proficient) HSPCs, FIG. 6B) was “consistently enhanced erythroid differentiation in the control HSPCs”, the “erythroid differentiation (CD235a)” value ([9]; varying doses FF (Selleckchem) vs 0 μM DMSO, n=3 healthy donors, FIG. 1A) was “elevated erythroid differentiation in primary human HSPCs in a dose-dependent manner; also recorded: enhances erythroid differentiation (CD235a) dose-dependently” and the viability ([9]; varying doses FF vs DMSO, FIG. 1B) was “without affecting viability, megakaryopoiesis or myelopoiesis; also recorded: does not affect viability”. For the same molecule, the “megakaryocytic (CD41-61) differentiation” value ([9]; varying doses FF vs DMSO, FIG. 1C) was “without affecting viability, megakaryopoiesis or myelopoiesis; also recorded: does not affect” and the “myeloid (CD11b) differentiation” value ([9]; varying doses FF vs DMSO, FIG. 1D) was “without affecting viability, megakaryopoiesis or myelopoiesis; also recorded: does not affect”.
